{
  "source": "patent US9526793B1",
  "about": "“Salts of phenylethylamines and inorganic acids and methods of use thereof” (priority 2013, dated 2016)",
  "key": {"[1]": {"assay": "Sexual performance of the subject (penile erectile genesis and maintainability)", "assay_type": "in vivo, human", "settings": "single oral capsule", "experimental": "Solid dose capsules were prepared as described in Example 3. The subject was given a single capsule containing 2-phenylethylamine nitrate, an admixture of 2-phenylethylamine HCl and NaNO3, or a placebo.\nSexual performance was evaluated in the subject by the relative length of time and number of times they were able to maintain an erection and engage in sexual intercourse (i.e., penile erectile genesis and maintainability) with their partner during a given period."}, "[2]": {"assay": "Tolerability of daily oral doses", "assay_type": "in vivo"}, "[3]": {"assay": "Clinical observation of onset and duration of athletic performance-enhancing effects after oral dose", "assay_type": "in vivo"}, "[4]": {"assay": "Subject-reported duration of euphoria and of vasodilation (drop in systolic blood pressure, sphygmomanometer)", "assay_type": "in vivo, human", "settings": "600 mg oral capsule", "experimental": "(§1) Solid dose capsules (size “00”, gelatin) were prepared containing either 600 mg of 2-phenylethylamine nitrate or equimolar quantities of an admixture of 2-phenylethylamine HCl and sodium nitrate (NaNO3). A placebo filled with an inert substance (200 mesh guar gum) was also prepared. The subject was given a single capsule containing 2-phenylethylamine nitrate, an admixture of 2-phenylethylamine HCl and NaNO3, or the placebo.\nThe subject estimated that the effect of the 2-phenylethylamine nitrate lasted substantially longer than the effect of the admixture. For example, the 2-phenylethylamine nitrate produced a sense of euphoria that typically lasted 50% longer than that experienced with the admixture."}, "[5]": {"assay": "Length of time the subject maintained a 5.5 mph pace on an elliptical trainer (athletic performance)", "assay_type": "in vivo, human", "settings": "single oral capsule, 600 mg 2-phenylethylamine nitrate or equimolar admixture", "experimental": "as §1\nAfter oral administration of the compound, the subject's ability to maintain a speed of about 5.5 mph on an elliptical trainer was measured. The length of time was recorded before the subject became fatigued and was no longer able to maintain this pace (see Table 1). Athletic performance was measured at times soon after administration of the compound before the subject had engaged in significant physical activity that day (at about 9:30 am each day). The subject was blinded to the identity of the capsules."}, "[6]": {"settings": "cited from earlier work"}, "[7]": {"settings": "as measured using the HCl salt; cited from earlier work"}},
  "note": "Read-outs that look alike come from different tables or passages of the source.",
  "data": [
    {"smiles": "NCCc1ccccc1.O=[N+]([O-])O", "note": "[2-Phenylethylamine Nitrate, 2-phenylethylamine nitrate]", "values": [
      {"measurement": "Sexual performance after administration", "setting": "[1]; compared with admixture or placebo", "value": "surprising enhancement in their sexual performance"},
      {"measurement": "Reduction of refractory time between erections", "setting": "[1]; subject, self-reported", "value": "~35", "unit": "%"},
      {"measurement": "Daily oral dose tolerated without significant side effects", "setting": "[2]", "value": "≤ 3.00", "unit": "grams"},
      {"measurement": "Time to clinically observable athletic performance-enhancing effects after ingestion", "setting": "[3]; single dose of 0.100 grams to 0.600 grams", "value": "≤ 10", "unit": "min"},
      {"measurement": "Time for which athletic performance-enhancing effects are clinically observable", "setting": "[3]; single, oral dose as low as 0.200 grams", "value": "≤ 6", "unit": "h"},
      {"measurement": "Duration of vasodilation versus the admixture", "setting": "[4]; measured by drop in systolic blood pressure", "value": "at least twice as long"},
      {"measurement": "Sense of euphoria: duration longer than that experienced with the admixture", "setting": "[4]; subject's estimate, versus admixture", "value": 50, "unit": "%"},
      {"measurement": "Percent Improvement Compared to Placebo", "setting": "[5]", "value": 10, "unit": "%"},
      {"measurement": "Time (Minutes) that the subject maintained a 5.5 mph pace on an elliptical", "setting": "[5]; average of several occasions", "value": 66, "unit": "min"}
    ]},
    {"smiles": "NCCc1ccccc1", "note": "[2-phenylethylamine]", "values": [
      {"measurement": "half-life", "setting": "[6]; in vivo", "value": "5 to 10", "unit": "min"},
      {"measurement": "Increase of brain levels when taking an MAO inhibitor", "setting": "[6]; initial 2-phenylethylamine brain concentration low", "value": "~1000", "unit": "fold"},
      {"measurement": "Increase of brain levels when taking an MAO inhibitor", "setting": "[6]; initial concentration high", "value": "3-4 times"},
      {"measurement": "pKb", "setting": "[7]", "value": 4.17}
    ]}
  ]
}
